Test results from PubChem BioAssay (NCI).
Where “and” joins values, the source holds several entries; their conditions need not be identical. Equal entries are not always repeated.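 Protocol summary: plate cells (96-well), add compound at 5 concentrations, incubate 48 h, interpolate endpoints linearly. GI50: concentration for 50% inhibition of growth. TGI is the concentration that stops growth completely.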

System: BT-549 breast
Assay: NCI-60 cell line screen, 48 h

Row | SMILES | TGI | GI50
1 | CC(=O)N(C(=O)CC(=O)N1N=C(c2ccccc2)C(N=Nc2ccccc2[N+](=O)[O-])C1=O)c1ccc(Cl)cc1 (centres undefined) | > 10 µM | –
2 | Oc1ccccc1CNCc1nc2ccccc2[nH]1 | > 100 µM | –
3 | COc1ncc(/C=C2\OC(=O)c3ccccc32)c(OC)n1 | 10.9 µM | –
4 | CC(=O)Nn1c(=S)[nH]c2ccccc21 | > 100 µM | –
5 | C[C@]12CCC3C4=C(CCC3C1CCC2=O)C(=O)[C@H]1O[C@H]1C4=O (some centres undefined) | 4.83 µM | –
6 | CCCCOC(=O)Nc1ccc(S(=O)(=O)Nc2ccccc2Cl)cc1 | 39.2 µM | –
7 | CC(C)c1cc2c(cc1S(=O)(=O)O)[C@@]1(C)CCC[C@@](C)(C(=O)O)C1CC2 (some centres undefined) | > 100 µM | –
8 | N#CC(Cc1ccccc1)N(CCC1=CCCCC1)C(c1ccccc1)c1ccccc1 (centres undefined) | > 100 µM | –
9 | C/C(=C\CBr)CCC(Br)C(C)(C)Br (centres undefined) | > 100 µM | –
10 | [N-]=[N+]=NC(c1ccccc1)(c1ccccc1)c1ccccc1 | 37.7 µM | –
11 | CC(=O)c1c2c(c3ccccc3c1O)O[C@@H]1OCC[C@H]21 | > 100 µM | –
12 | C(=C(c1ccc(OC2CCCCO2)cc1)c1ccc(OC2CCCCO2)cc1)c1ccccc1 (centres undefined) | 1.5 µM | –
13 | C[C@]12CC[C@H](O)CC1=CC[C@@H]1[C@@H]2CC[C@]2(C)C(=N/N)/C(=N\O)C[C@@H]12 | > 100 µM | –
14 | CC(=O)Oc1cccc2c1C(=O)CCCC2 | > 100 µM | –
15 | CCN(CC)C(=S)N/N=C/c1cc([N+](=O)[O-])ccc1O | 33.2 µM | –
16 | Cc1ccc(NC(=O)c2ccc(OP(=O)(O)Nc3ccc(C)cc3)cc2)cc1 | > 100 µM | –
17 | Cc1ccnc(NS(=O)(=O)c2ccc(N=[N+]=[N-])cc2)n1 | > 100 µM | –
18 | Cc1ccccc1C(=N)c1ccccc1Cc1cccc2ccccc12 | 92 µM | –

Row | SMILES | TGI | GI50
19 | CCC(=O)NC(Nc1cc(C)on1)(C(F)(F)F)C(F)(F)F | > 100 µM | –
20 | COc1ccc(-c2[nH]c3c4c(nc5c(c24)C(=O)CC(C)(C)C5)CC(C)(C)C3)cc1 | > 100 µM | –
21 | CCC(=O)NCC1CCCN2CCCCC12 (centres undefined) | > 100 µM | –
22 | Cc1ccccc1OC(C)C(=O)NN1C(=O)CSC1c1ccccc1 (centres undefined) | > 100 µM | –
23 | Cc1ccc(N(Cc2ccccc2)Cc2ccccc2)cc1 | > 100 µM | –
24 | Nc1nc(-c2ccccc2)nc2oc(-c3cccs3)nc12 | > 100 µM | –
25 | CC(C)=CCC[C@@H](C)c1c(O)c(O)c(C)c2nccnc12 | > 100 µM | –
26 | O=c1[nH]c(=S)[nH]c2c1C(c1ccc([N+](=O)[O-])cc1)c1c([nH]c(=S)[nH]c1=O)O2 | > 100 µM | –
27 | Cn1c(=O)c2c(nc3n2CC(C(=O)O)N3)n(C)c1=O (centres undefined) | > 100 µM | –
28 | Cc1ccc(-c2cc(-c3ccco3)c(C#N)c(=S)n2C2OC(CO)C(O)C(O)C2O)cc1 (centres undefined) | 78.5 µM and > 100 µM | 18.2 µM and 57.3 µM
29 | Cc1oc2c(cc(O)c3cc(O)ccc32)c2cccc1-2 | 44 µM | –
30 | NC(N)=Nc1ccc(CC(N)NCC(=O)O)cc1 (centres undefined) | > 25 µM | –
31 | COC(=O)C1=C(C(=O)OC)SC(=C2SCSC3=C2SC(C(=O)OC)=C(C(=O)OC)C32SC3=C(CCCC3)S2)S1 | > 100 µM | –
32 | COc1nncc2[nH]c(-c3ccccc3)cc12 | > 100 µM | –
33 | COc1ccc(-n2c(C)nc3ccc(NC(=S)Nc4ccccc4)cc3c2=O)cc1 | > 100 µM | –
34 | O=S(=O)(c1ccccc1)c1cccc2c1NCCC2 | 83 µM | –
35 | COP(=O)(OC)C1=c2c(C)noc2=C2C=COC2C1=O (centres undefined) | > 100 µM | –

System: HCC-2998 colon
Assay: NCI-60 cell line screen, 48 h

Row | SMILES | GI50 | TGI
36 | O=C1c2cc3c(cc2-c2c1c1ccc(F)cc1c(=O)n2C[C@H](O)[C@@H](O)[C@H](O)CO)OCO3 | 140 nM | 0.38 µM
37 | Nn1c(Nc2ccc(S(=O)(=O)Nc3ncccn3)cc2)nnc(/C=C/c2c(O)ccc3ccccc23)c1=O | – | 57.7 µM
38 | Cc1cc(-c2nc3ccc(F)cc3s2)ccc1NC(=O)[C@H](C)N | – | 4.5 µM
39 | Cc1cc(Nc2ccc(S(=O)(=O)O)c3cc(S(=O)(=O)O)cc(S(=O)(=O)O)c23)c2ccccc2n1 | – | > 100 µM
40 | NS(=O)(=O)c1nnc(NC(=O)Nc2ccc(Cl)c(Cl)c2)s1 | – | 34.8 µM
41 | O=[N+]([O-])c1cc(C=NC23CC4CC(CC(C4)C2)C3)ccc1Cl | – | 75.1 µM
42 | CCCCCC1=CC(=O)C1(Cl)Cl | – | 27.7 µM
43 | CC(=O)N(C(=O)CC(=O)N1N=C(c2ccccc2)C(N=Nc2ccccc2[N+](=O)[O-])C1=O)c1ccc(Cl)cc1 (centres undefined) | – | > 10 µM
44 | Oc1ccccc1CNCc1nc2ccccc2[nH]1 | – | > 100 µM
45 | COc1ncc(/C=C2\OC(=O)c3ccccc32)c(OC)n1 | – | > 100 µM
46 | CC(=O)Nn1c(=S)[nH]c2ccccc21 | – | > 100 µM
47 | C[C@]12CCC3C4=C(CCC3C1CCC2=O)C(=O)[C@H]1O[C@H]1C4=O (some centres undefined) | – | 3.3 µM
48 | CCCCOC(=O)Nc1ccc(S(=O)(=O)Nc2ccccc2Cl)cc1 | – | 27.5 µM
49 | CC(C)c1cc2c(cc1S(=O)(=O)O)[C@@]1(C)CCC[C@@](C)(C(=O)O)C1CC2 (some centres undefined) | – | > 100 µM
50 | N#CC(Cc1ccccc1)N(CCC1=CCCCC1)C(c1ccccc1)c1ccccc1 (centres undefined) | – | > 100 µM
51 | C/C(=C\CBr)CCC(Br)C(C)(C)Br (centres undefined) | – | > 100 µM
52 | [N-]=[N+]=NC(c1ccccc1)(c1ccccc1)c1ccccc1 | – | 30.5 µM
